In patent publication US20240360139A1, “BLOOD BRAIN BARRIER PENETRATING SELECTIVE INHIBITORS OF ROCK2 PROTEIN KINASES AND USES THEREOF” (GENOSCO Inc., priority 2023, published 2024):
pIC50: −log10 of the molar value.

Columns and labels:
[1] = target: T1, Recombinant ROCK1 (amino acids 1-477) (Homo sapiens, UniProt Q13464); experiment: ROCK inhibition assay, LANCE Ultra TR-FRET (ROCK1); assay type: biochemical; conditions: 1 mM of ATP
T1 construct: Recombinant ROCK1 (amino acids 1-477)
Description: (§1) Kinase IC50 was determined through an in vitro assay based on LANCE Ultra TR-FRET (Time-Resolved Fluorescence Resonance Energy Transfer) homogeneous technologies method 5 (Perkin Elmer). Recombinant ROCK1 (amino acids 1-477) and ROCK2 (amino acids 5-554) proteins were purchased from Carna Biosciences and SignalChem. Compound activities were measured by Envision and IC50s were calculated. The assays were performed in white LUMITRAC™ 200 96 well half-area microplates from Greiner Bio-One. The kinase reaction buffer consisted of 50 mM HEPES pH 7.5, 1 mM EGTA, 10 mM MgCl2, 2 mM DTT and 0.01% 10 Tween-20. Kinases were incubated with 50 nM (ULight-CREBtide) substrate in the presence of 1 mM (ROCK1) or 1 mM (ROCK2) of ATP. The kinase reaction was carried out for 1 hour before addition of a stopping buffer to a final of 10 mM EDTA and 0.6 nM of LANCE Ultra Europium anti-phospho-CREB (Ser133) antibody (PerkinElmer TRF0200) in LANCE detection buffer. All assay incubations were performed at room temperature, and the microplates were sealed with polyester film during that time. The reaction was incubated for 1 hour, and the signal was read in Envision in TR-FRET mode (excitation at 320 nm and emission at 615/665 nm).
(§2) As used herein, a way to describe potency of inhibitory activity (nM) is a value of inhibitory activity at 50% (IC50).

[2] = Blood-brain barrier penetration, brain-to-plasma ratio in rat; assay type: in vivo; conditions: Sprague-Dawley rat, IV 1 mg/kg, n=3
Description: (§3) The concentrations of compounds of (1) in blood and brain were measured from plasma and brain samples taken 0.25 and 2 hours after intravenous (IV) administration of the compounds of (1) at 1 mg/kg in CD-1 mouse and Sprague-Dawley rat (n=3). After euthanizing the mouse and rat, blood samples from cardiac puncture and brain tissue were collected. Plasma or brain homogenate was vortexed for 1 min. with internal standard in Methanol/Acetonitrile (1:1, v/v), and centrifuged at 4000-4500 rpm for 15 min. at room temperature to precipitate proteins. Subsequently, the supernatant was introduced into the LC/MS/MS system. An AB Sciex API 5500 mass spectrometer system (Sciex, USA) was used for quantitative analysis. The concentrations compounds of (1) in plasma and brain sample were determined using the standard calibration curve and brain-to-plasma concentration ratio was calculated.

[3] = Blood-brain barrier penetration, brain-to-plasma ratio in mouse; assay type: in vivo; conditions: CD-1 mouse, IV 1 mg/kg, n=3
Description: as §3

[4] = target: T2, Recombinant ROCK2 (amino acids 5-554) (Homo sapiens, UniProt O75116); experiment: ROCK inhibition assay, LANCE Ultra TR-FRET (ROCK2); assay type: biochemical; conditions: 1 mM of ATP
T2 construct: ROCK2 (amino acids 5-554)
Description: as §1, §2

T1 sequence (Q13464 1-477): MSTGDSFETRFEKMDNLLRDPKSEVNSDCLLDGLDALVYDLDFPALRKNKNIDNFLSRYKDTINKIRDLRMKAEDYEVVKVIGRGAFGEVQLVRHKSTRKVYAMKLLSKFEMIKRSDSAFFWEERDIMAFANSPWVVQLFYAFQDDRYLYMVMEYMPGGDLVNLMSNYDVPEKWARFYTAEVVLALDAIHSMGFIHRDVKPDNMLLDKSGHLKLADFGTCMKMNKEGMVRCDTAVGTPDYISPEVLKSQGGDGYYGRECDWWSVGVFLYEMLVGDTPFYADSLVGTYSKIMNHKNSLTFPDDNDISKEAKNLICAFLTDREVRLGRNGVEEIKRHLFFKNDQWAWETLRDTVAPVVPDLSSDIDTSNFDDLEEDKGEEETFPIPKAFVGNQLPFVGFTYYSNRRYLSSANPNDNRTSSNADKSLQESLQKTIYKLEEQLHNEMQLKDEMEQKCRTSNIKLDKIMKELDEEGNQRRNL
T2 sequence (O75116 5-554): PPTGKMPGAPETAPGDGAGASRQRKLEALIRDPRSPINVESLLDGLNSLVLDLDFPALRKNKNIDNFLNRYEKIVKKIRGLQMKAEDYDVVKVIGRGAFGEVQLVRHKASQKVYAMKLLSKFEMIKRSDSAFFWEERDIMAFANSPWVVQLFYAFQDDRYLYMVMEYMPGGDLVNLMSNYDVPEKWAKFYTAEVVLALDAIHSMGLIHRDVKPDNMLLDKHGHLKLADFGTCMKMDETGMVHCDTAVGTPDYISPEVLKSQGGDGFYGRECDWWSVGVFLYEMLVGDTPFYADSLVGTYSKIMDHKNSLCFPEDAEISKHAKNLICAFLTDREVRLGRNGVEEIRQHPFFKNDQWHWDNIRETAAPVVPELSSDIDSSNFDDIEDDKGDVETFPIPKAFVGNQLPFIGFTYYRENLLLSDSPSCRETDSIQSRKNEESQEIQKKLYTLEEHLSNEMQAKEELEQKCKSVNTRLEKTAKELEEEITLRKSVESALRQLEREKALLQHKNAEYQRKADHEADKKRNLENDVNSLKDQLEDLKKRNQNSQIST

pIC50 [1] | pIC50 [4] | Compound | Kp at 0.25 h [2] | Kp at 2 h [2] | Kp at 0.25 h [3] | Kp at 2 h [3]
6.30 to 6.70 | > 7.70 | CN(C)CCn1cc(C(=O)[C@@H]2COc3ccc(Cl)cc3C2)c2ccc(-c3cn[nH]c3Cl)cc21 [Compound 5-36] |  |  |  | 
< 6.30 | > 7.70 | COc1ccc2c(c1)C[C@H](C(=O)c1cn(C[C@H]3CCN3C)c3cc(-c4cn[nH]c4Cl)ccc13)CO2 [Compound 1-51] |  |  |  | 
6.70 to 7.68 | > 7.70 | NCCn1cc(C(=O)C2COc3ccc(F)cc3C2)c2cnc(-c3c[nH]nc3Cl)cc21 (stereo not drawn) [Compound 2-3] |  |  |  | 
6.70 to 7.68 | > 7.70 | NC1(Cn2cc(C(=O)C3COc4ccc(F)cc4C3)c3ccc(-c4cn[nH]c4Cl)cc32)CC1 (stereo not drawn) [Compound 4-4] |  |  |  | 
> 7.70 | > 7.70 | NC1(Cn2cc(C(=O)C3COc4ccc(Cl)cc4C3)c3ccc(-c4cn[nH]c4Cl)cc32)CC1 (stereo not drawn) [Compound 4-2] |  |  |  | 
< 6.30 | 6.70 to 7.68 | CN(C)CCn1cc(C(=O)C2COc3ccc(Cl)cc3C2)c2ccc(-c3cn[nH]c3F)cc21 (stereo not drawn) [Compound 1-24] |  |  |  | 
< 6.30 | > 7.70 | O=C(c1cn(C[C@H]2CCN2)c2cc(-c3cn[nH]c3F)ccc12)C1COc2ccc(Cl)cc2C1 (stereo partly drawn) [Compound 1-40] |  |  |  | 
< 6.30 | 6.70 to 7.68 | O=C(c1cn(C2CNC2)c2cc(-c3c[nH]nc3Cl)ncc12)C1COc2ccc(F)cc2C1 (stereo not drawn) [Compound 1-15] |  |  |  | 
< 6.30 | < 6.30 | CN(C)CCn1cc(C(=O)C2COc3ccc(Cl)cc3O2)c2ccc(-c3c[nH]nc3Cl)cc21 (stereo not drawn) [Compound 5-17] |  |  |  | 
6.70 to 7.68 | > 7.70 | NCCn1cc(C(=O)C2COc3ccc(Cl)cc3C2)c2cnc(-c3c[nH]nc3Cl)cc21 (stereo not drawn) [Compound 2-1, [1-(2-aminoethyl)-6-(3-chloro-1H-pyrazol-4-yl)pyrrolo[3,2-c]pyridin-3-yl]-(6-chlorochroman-3-yl) methanone] |  |  |  | 
< 6.30 | 6.30 to 6.70 | CN(C)CCn1cc(C(=O)[C@H]2COc3ccc(Cl)cc3C2)c2ccc(-c3cn[nH]c3Cl)cc21 [Compound 5-35] |  |  |  | 
< 6.30 | 6.70 to 7.68 | COc1ccc2c(c1)CC(C(=O)c1cn(C[C@@H]3CCN3C)c3cc(-c4cn[nH]c4Cl)ccc13)CO2 (stereo partly drawn) [Compound 1-46] |  |  |  | 
> 7.70 | > 7.70 | O=C(c1cn(CC2CNC2)c2cc(-c3cn[nH]c3Cl)ccc12)C1COc2ccc(Cl)cc2C1 (stereo not drawn) [Compound 1-21] |  |  |  | 
6.30 to 6.70 | 6.70 to 7.68 | CN(C)CCn1cc(C(=O)[C@@H]2COc3ccc(Cl)cc3C2)c2ccc(-c3cn[nH]c3F)cc21 [Compound 1-25] |  |  |  | 
6.30 to 6.70 | 6.70 to 7.68 | CN(C)CCn1nc(C(=O)[C@@H]2COc3ccccc3O2)c2ccc(-c3cn[nH]c3)cc21 [Compound 5-44] |  |  |  | 
< 6.30 | 6.70 to 7.68 | COc1[nH]ncc1-c1ccc2c(C(=O)C3COc4ccc(Cl)cc4C3)cn(C3CNC3)c2c1 (stereo not drawn) [Compound 1-18] |  |  |  | 
6.30 to 6.70 | > 7.70 | COc1ccc2c(c1)CC(C(=O)c1cn(C[C@@H]3CCN3)c3cc(-c4cn[nH]c4OC)ccc13)CO2 (stereo partly drawn) [Compound 1-41] |  |  |  | 
6.30 to 6.70 | > 7.70 | COc1ccc2c(c1)CC(C(=O)c1cn(C[C@@H]3CCN3)c3cc(-c4cn[nH]c4Cl)ccc13)CO2 (stereo partly drawn) [Compound 1-36] |  |  |  | 
< 6.30 | > 7.70 | COc1ccc2c(c1)C[C@H](C(=O)c1cn(C[C@@H]3CCN3C)c3cc(-c4cn[nH]c4Cl)ncc13)CO2 [Compound 1-4] |  |  |  | 
6.30 to 6.70 | > 7.70 | CN(C)CCn1cc(C(=O)[C@@H]2COc3ccc(Cl)cc3C2)c2ccc(-c3cn[nH]c3F)cc21 [Compound 1-26] |  |  |  | 
< 6.30 | < 6.30 | CN(C)CCn1nc(C(=O)C2CCOc3ccc(F)cc3C2)c2ccc(-c3c[nH]nc3Cl)cc21 (stereo not drawn) [Compound 5-63] |  |  |  | 

pIC50 [1] | pIC50 [4] | Compound | Kp at 0.25 h [2] | Kp at 2 h [2] | Kp at 0.25 h [3] | Kp at 2 h [3]
< 6.30 | > 7.70 | COc1ccc2c(c1)CC(C(=O)c1cn(CCN(C)C)c3nc(-c4c[nH]nc4Cl)ccc13)CO2 (stereo not drawn) [Compound 1-13] |  |  |  | 
< 6.30 | 6.30 to 6.70 | CN(C)CCn1cc(C(=O)C2COc3ccc(F)cc3O2)c2ccc(-c3c[nH]nc3Cl)cc21 (stereo not drawn) [Compound 5-16] |  |  |  | 
> 7.70 | > 7.70 | COc1[nH]ncc1-c1ccc2c(C(=O)C3COc4ccc(Cl)cc4C3)cn(CC3CNC3)c2c1 (stereo not drawn) [Compound 1-22] |  |  |  | 
> 7.70 | > 7.70 | COc1[nH]ncc1-c1ccc2c(C(=O)C3COc4ccc(Cl)cc4C3)cn(CC3(N)CC3)c2c1 (stereo not drawn) [Compound 4-1, [1-[(1-aminocyclopropyl)methyl]-6-(5-methoxy-1H-pyrazol-4-yl)indol-3-yl]-(6-chlorochroman-3-yl)methanone] |  |  |  | 
< 6.30 | > 7.70 | COc1ccc2c(c1)CC(C(=O)c1cn(C[C@@H]3CCN3)c3cc(-c4cn[nH]c4F)ccc13)CO2 (stereo partly drawn) [Compound 1-37] |  |  |  | 
< 6.30 | > 7.70 | O=C(c1cn(CC2CCN2)c2cc(-c3cn[nH]c3F)ccc12)C1COc2ccc(Cl)cc2C1 (stereo not drawn) [Compound 1-30] |  |  |  | 
< 6.30 | > 7.70 | CCN1CC[C@@H]1Cn1cc(C(=O)[C@@H]2COc3ccc(OC)cc3C2)c2ccc(-c3cn[nH]c3Cl)cc21 [Compound 1-59] |  |  |  | 
< 6.30 | 6.70 to 7.68 | O=C(c1cn(C[C@H]2CCN2)c2cc(-c3cn[nH]c3Cl)ccc12)C1COc2ccc(Cl)cc2C1 (stereo partly drawn) [Compound 1-39] |  |  |  | 
< 6.30 | > 7.70 | O=C(c1cn(CCN2CCC2)c2nc(-c3c[nH]nc3Cl)ccc12)C1COc2ccc(F)cc2C1 (stereo not drawn) [Compound 3-1, [1-[2-(azetidin-1-yl)ethyl]-6-(3-chloro-1H-pyrazol-4-yl)pyrrolo[2,3-b]pyridin-3-yl]-(6-fluorochroman-3-yl)methanone] |  |  |  | 
< 6.30 | < 6.30 | CN(C)CCn1cc(C(=O)C2COc3ccc(Cl)cc3C2)c2ccc(-c3ccnn3C)cc21 (stereo not drawn) [Compound 5-24] |  |  |  | 
6.70 to 7.68 | > 7.70 | CN1CC(Cn2cc(C(=O)C3COc4ccc(Cl)cc4C3)c3ccc(-c4cn[nH]c4F)cc32)C1 (stereo not drawn) [Compound 1-43] |  |  |  | 
< 6.30 | > 7.70 | CCN(CC)CCn1cc(C(=O)C2COc3ccc(Cl)cc3C2)c2ccc(-c3cn[nH]c3OC)cc21 (stereo not drawn) [Compound 3-13] |  |  |  | 
< 6.30 | 6.70 to 7.68 | CN(C)CCn1nc(C(=O)C2COc3ccccc3O2)c2ccc(-c3cn[nH]c3)cc21 (stereo not drawn) [Compound 5-43] |  |  |  | 
< 6.30 | 6.70 to 7.68 | CN(C)CCn1nc(C(=O)C2COc3ccc(Cl)cc3O2)c2ccc(-c3c[nH]nc3F)cc21 (stereo not drawn) [Compound 5-60] |  |  |  | 
< 6.30 | > 7.70 | COc1[nH]ncc1-c1ccc2c(C(=O)[C@@H]3COc4ccc(F)cc4C3)cn(CCN(C)C)c2c1 [Compound 5-38] |  |  |  | 
< 6.30 | > 7.70 | CCN(CC)CCn1cc(C(=O)[C@@H]2COc3ccc(Cl)cc3C2)c2ccc(-c3cn[nH]c3OC)cc21 [Compound 3-14] |  |  |  | 
< 6.30 | < 6.30 | CN1CCCC1Cn1cc(C(=O)C2COc3ccc(Cl)cc3C2)c2ccc(-c3cn[nH]c3Cl)cc21 (stereo not drawn) [Compound 1-20] |  |  |  | 
< 6.30 | 6.70 to 7.68 | CCN(C)CCn1cc(C(=O)C2COc3ccc(Cl)cc3C2)c2ccc(-c3cn[nH]c3OC)cc21 (stereo not drawn) [Compound 3-11] |  |  |  | 
< 6.30 | > 7.70 | CNCCn1cc(C(=O)C2COc3ccc(OC)cc3C2)c2ccc(-c3cn[nH]c3Cl)cc21 (stereo not drawn) [Compound 3-23] |  |  |  | 
< 6.30 | 6.70 to 7.68 | COc1[nH]ncc1-c1cc2c(cn1)c(C(=O)C1COc3ccc(Cl)cc3C1)cn2CCN(C)C (stereo not drawn) [Compound 1-1, (6-chlorochroman-3-yl)-[1-[2-(dimethylamino)ethyl]-6-(3-methoxy-1H-pyrazol-4-yl)pyrrolo[3,2-c]pyridin-3-yl]methanone] |  |  |  | 
6.30 to 6.70 | > 7.70 | CN1CC[C@H]1Cn1nc(C(=O)[C@@H]2COc3ccc(F)cc3C2)c2ccc(-c3c[nH]nc3F)cc21 [Compound 5-57] |  |  |  | 

Compound | pIC50 [1] | pIC50 [4] | Kp at 0.25 h [2] | Kp at 2 h [2] | Kp at 0.25 h [3] | Kp at 2 h [3]
CCN(CC)CCn1cc(C(=O)C2COc3ccc(OC)cc3C2)c2ccc(-c3cn[nH]c3Cl)cc21 (stereo not drawn) [Compound 3-17] | < 6.30 | 6.70 to 7.68 | 1.05 | 0.98 | 0.73 | 0.92
CN1CC[C@H]1Cn1nc(C(=O)C2COc3ccc(F)cc3C2)c2ccc(-c3c[nH]nc3F)cc21 (stereo partly drawn) [Compound 5-56] | < 6.30 | 6.70 to 7.68 | 12.4 | 20.2 | 7.32 | 10.2
